Laboratory results reported in patent publication US10240124B2, “Cell culture substrate comprising a laminin and a cadherin” (BioLamina AB, priority 2011, dated 2019).

System: Human ES cells
Assay: Expansion of hES cells on r-laminin-521 with single cell dissociation passaging (Example 1)
Assay type: cell-based
Excerpt: In further aspects, the present disclosure provides a method to expand human embryonic stem cells in pluripotent state. It has been shown that human embryonic stem cells plated in single cell suspension on laminin-521 survived and proliferated at a higher rate than that of classical methods known in the art. After 3 passages (1 month) the cells passaged in a single cell suspension underwent the same number of cell divisions as that of cell cultures passaged in pieces on Matrigel after 20 passages (3 months). Therefore, the new method was advantageous in terms of time and labor, which may provide significant economical profits.
Human ES cells were cultured on r-laminin-521-coated laboratory dishes in chemically defined O3 medium (described in Rodin et al., Nature Biotechnol., vol. 28, pp. 611-615 (2010)) at 37° C. in 5% CO2. Cells were routinely passed once every 10-12 days by exposure to Trypsin-EDTA solution (GIBCO Invitrogen) for 5 minutes at 37° C. They were then gently pipetted to break into single-cell suspension and defined trypsin inhibitor (GIBCO Invitrogen) was added. The cell suspension was centrifuged […], the supernatant discarded, the cell pellet resuspended in prewarmed O3 medium, and cells were then passed through a 40 μm sieve. After that cells were plated on new r-laminin-521-coated dishes at a concentration 30 Kcells/cm^2 (1:25-1:30 split ratio). Cells were fed once a day with fresh medium prewarmed in an incubator for 1 hour, except for the first day after a passage, when only a few drops of fresh medium were added. Control cells of the same line were cultured on Matrigel (BD Biosciences) in O3 medium as described in Rodin et al., Nature Biotechnol., vol. 28, pp. 611-615 (2010). Control cells were passaged in pieces.

LN-521: protein formed by joining α5, β2 and γ1 laminin chains; human recombinant, produced in HEK293 cells
passages in single cell suspension giving the same number of cell divisions as cultures passaged in pieces on Matrigel after 20 passages (3 months) (1 month): 3 passages | passages to the same number of cell doublings as stem cells after 20 passages (100 days) by conventional methods (1 month, FIG. 8): 3 passages | increase in the number of cells versus time compared with Matrigel (FIG. 8): much faster rate | proliferation rate compared with classical methods (plated in single cell suspension): higher rate | passages of robust proliferation at a stable and high rate (single cell passaging every 10-12 days, 1:25 to 1:30, 3 months): at least 9 passages
